Results as given in patent US6444684B1 (priority 1993, dated 2002).
Where two headings read alike, the source gives them in different places.

Legend:
[1] = NCI toxicity studies, maximum tolerated dose; details: mouse, in vivo; mice
Description: As a result of its performance in an initial and a repeat cancer screen, compound 55 has been selected for in vivo testing. Compound 55 was chosen primarily because of its selectivity for non-small cell lung cancer. To date, toxicity studies have been performed, and the maximum tolerated dose in mice has been determined to be 400 mg/kg.

[2] = system: K/1 = ras^K Transformed NRKE Cells; details: for Differential Index K/1: K/1 = ras^K transformed NRKE cells, compared with normal NRKE cells
[3] = system: H/1.2 = ras^H Transformed NRKE Cells; details: H/1.2 = ras^H transformed NRKE cells, compared with normal NRKE cells
[4] = system: N/4.2-NRKE transformed by the human ras^N gene; details: N/4.2 = ras^N transformed NRK cells, compared with normal NRKE cells
[5] = system: 3LL = Lewis Lung Carcinoma Cells; details: 3LL = Lewis lung carcinoma cells, compared with normal NRKE cells
[6] = system: K/1 = ras^K Transformed NRKE Cells; experiment: cells; details: Rattus norvegicus
[7] = system: H/1.2 = ras^H Transformed NRKE Cells; experiment: cells; details: Rattus norvegicus
[8] = system: N/4.2-NRKE transformed by the human ras^N gene; experiment: cells; details: N42, read-out: LC50 N/4.2
[9] = system: 3LL = Lewis Lung Carcinoma Cells; experiment: cells; details: Mus musculus
[10] = in vitro
[11] = system: Leukemia cell lines; experiment: NCI in vitro anticancer screen (SRB), leukemia subpanel; details: 48 hours exposure; average percent growth over the cell lines
Description: (§1) Compounds chosen for the program are initially tested in an in vitro anticancer screen. A total of fifty-five human tumor cell lines, derived from nine cancer types (lung, colon, melanoma, renal, ovarian, brain, prostate, breast and leukemia), are used in this screen. The tumor cells are inoculated over a series of standard 96-well microtiter plates on day 0. These cells are then preincubated on the microtiter plates for 24 hours. The test compounds are added to the wells in five 10-fold dilutions starting from the highest soluble concentration. Each compound is tested against every cell line in the panel. The compounds are incubated for 48 hours with the tumor cell lines. At the termination of the assay, the cells are fixed in situ, washed, and dried. Sulforhodamine B (SRB), a pink anionic dye that binds to the basic amino acids of trichloroacetic acid-fixed cells, is added. The cells are washed again, and the remaining dye is a function of the adherent cell mass. The bound stain is solubilized and measured spectrophotometrically. The data are entered from automatic reading devices into a computer for subsequent storage and analysis.
(§2) The measured effect of each test compound on the cell lines is calculated according to one or the other of the following two expressions:
(§3) If (Mean ODtest−Mean ODtzero)□0, then PG=100×(Mean ODtest−Mean ODtzero)/(Mean ODctrl−Mean ODtzero);
(§4) If (Mean ODtest−Mean ODtzero)<0, then PG=100×(Mean ODtest−Mean ODtzero)/Meantzero;
(§5) First, a data sheet is provided which lists, for each cell line, the Mean ODtzero, the Mean ODctrl, the Mean ODtest for each of the five concentrations, the calculated PGs for each concentration, and the response parameters G150, TGI, and LC50.
(§6) Third, mean graphs at each of the principal response parameters (GI50, TGI, and LC50) are provided. […] Since the bar scale is logarithmic, a bar two units to the right implies the compound achieved the response parameter (e.g., GI50) for the cell line at a concentration 1/100 the mean concentration required over all cell lines, and thus the cell line is unusually sensitive to that compound. Bars extending to the left correspondingly imply sensitivity less than the mean. Thus, the mean graphs facilitate visual scanning of data for potential patterns of selectivity for particular cell lines or for particular subpanels with respect to a selected response parameter.

[12] = system: Melanoma cell lines; experiment: NCI in vitro anticancer screen (SRB), melanoma subpanel; details: 48 hours exposure; average percent growth over the cell lines
Description: as §1, §2, §3, §4, §5, §6

[13] = system: CNS Cancer cell lines; experiment: NCI in vitro anticancer screen (SRB), CNS cancer subpanel; details: 48 hours exposure; average percent growth over the cell lines
Description: as §1, §2, §3, §4, §5, §6

[14] = system: Colon Cancer cell lines; experiment: NCI in vitro anticancer screen (SRB), colon cancer subpanel; details: 48 hours exposure; average percent growth over the cell lines
Description: as §1, §2, §3, §4

[15] = system: Renal Cancer cell lines; experiment: NCI in vitro anticancer screen (SRB), renal cancer subpanel; details: 48 hours exposure; average percent growth over the cell lines
Description: as §1, §2, §3, §4, §5, §6

[16] = system: Breast Cancer cell lines; experiment: NCI in vitro anticancer screen (SRB), breast cancer subpanel; details: 48 hours exposure; average percent growth over the cell lines
Description: as §1, §2, §3, §4

[17] = system: Ovarian Cancer cell lines; experiment: NCI in vitro anticancer screen (SRB), ovarian cancer subpanel; details: 48 hours exposure; average percent growth over the cell lines
Description: as §1, §2, §3, §4

[18] = system: Prostate Cancer cell lines; experiment: NCI in vitro anticancer screen (SRB), prostate cancer subpanel; details: 48 hours exposure; average percent growth over the cell lines
Description: as §1, §2, §3, §4

[19] = system: Non-Small Cell Lung Cancer cell lines; experiment: NCI in vitro anticancer screen (SRB), non-small cell lung cancer subpanel; details: for Activity (Average PG for highest dose tested) Non-Small Cell Lung Cancer: 48 hours exposure, average percent growth over the cell lines
Description: as §1, §2, §3, §4, §5, §6

[20] = system: L. major; experiment: L. major footpad infection in Balb/c mice; type: in vivo; details: 80 mg/kg/day intraperitoneally in corn oil for seven days
Description: Compound 1 dissolved in corn oil was administered intraperitoneally to Balb/c mice (Ball State University colony) at 80 mg/kg/day for seven days beginning one day prior to injection of 5×10^6 L. major promastigotes in medium 199 in the hind foot. Control mice received an equivalent amount of corn oil and L. major. Beginning on day 8, the thickness of the footpads top to bottom was measured using a vernier caliper. Footpad swelling indicates progression of the disease. The percent increase in footpad size was calculated as: [formula]
The percent increase in footpad size is for triplicate mice in the control group and duplicate mice in the treated group.

[21] = Solubility in dosing vehicle; type: physicochemical; details: 10 percent emulphor 620 in Dulbecco's phosphate buffered saline
Description: CY was dissolved in isotonic saline, 20 and 21 were dissolved in corn oil, and 1 was dissolved in 10 percent emulphor 620 in Dulbecco's phosphate buffered saline. […] Starting 1 day after tumor implantation, drugs were administered interperitoneally (IP) at the doses given in Table X. CY and compounds 20 and 21 were given once daily for 8 days. Compound 1 was administered in three doses per day at lower dose levels, and the animals were treated for 7 days. On day 10, tumor masses, percent inhibition of tumor growth, and weight changes were determined.

[22] = system: K/1-NRKE tumor (ras^K-transformed NRKE cells)
[23] = system: human tumor cells in hollow fibers; experiment: NCI Hollow Fiber Assay for preliminary in vivo testing; details: combined IP+SC score
Description: For these assays, human tumor cells are cultivated in polyvinylidene fluoride (PVDF) hollow fibers, and a sample of each cell line is implanted into each of two physiologic compartments (intraperitoneal and subcutaneous) in mice. Each test mouse receives a total of 6 fibers (3 intraperitoneally and 3 subcutaneously) representing 3 distinct cancer cells lines. Three mice are treated with potential antitumor compounds at each of 2 test doses by the intraperitoneal route using a QD×4 treatment schedule. Vehicle controls consist of 6 mice receiving the compound diluent only. The fiber cultures are collected on the day following the last day of treatment. To assess anticancer effects, viable cell mass is determined for each of the cell lines using a formazan dye (MTT) conversion assay. From this, the % T/C can be calculated using the average optical density of the compound treated samples divided by the average optical density of the vehicle controls. In addition, the net increase in cell mass can be determined for each sample as a sample of fiber cultures are assessed for viable cell mass on the day of implantation into mice. Thus, the cytostatic and cytocidal capacities of the test compound can be assessed.
This represents a total of 4 experiments since each experiment contains 3 cell lines. […]

[24] = 120 h, read-out: LC50 3LL, Table VII, concentration giving 50% cell kill, 5 days exposure
[25] = read-out: LC50 3LL, second table headed TABLE VIII

Row | SMILES | Differential Index K/1 [2] | Differential Index H/1.2 [3] | Differential Index N/4.2 [4] | Differential Index 3LL [5] | CC50 [9, 24] | CC50 ([9]; read-out: LC50 3LL, Table VIII) | CC50 [9, 25] | Activity (Average PG for highest dose tested) Leukemia [11] | Activity (Average PG for highest dose tested) Melanoma [12] | Activity (Average PG for highest dose tested) CNS Cancer [13] | Activity (Average PG for highest dose tested) Colon Cancer [14] | Activity (Average PG for highest dose tested) Renal Cancer [15] | Activity (Average PG for highest dose tested) Breast Cancer [16] | Activity (Average PG for highest dose tested) Ovarian Cancer [17] | Activity (Average PG for highest dose tested) Prostate Cancer [18] | Activity (Average PG for highest dose tested) Non-Small Cell Lung Cancer [19] | other results
1 | COC(=O)c1nc(-c2ccc3c(n2)C(=O)C(N)=CC3=O)c2[nH]c3ccccc3c2c1C [Compound 55, lavendamycin methyl ester, reference compound] | 3.33 | 0.9 | 1.67 | 0.4 | 500 nM | 500 nM | 500 nM | +30.0% | −53.0% | −39.3% | −20.0% | −63.8% | −43.8% | −43.5% | −31.0% | −60.8% | MTD [1]: 400 mg/kg; selective toxicity (Table IX) ([2]; ras^K cells versus normal cells): 0.5; CC50 ([6]; 120 h, read-out: LC50 K/1, Table VII, concentration giving 50% cell kill, 5 days exposure): 200 nM; CC50 ([6]; read-out: LC50 K/1, Table VIII): 200 nM; CC50 ([6]; read-out: LC50 K/1, Table XV (Example 51)): 30 nM; CC50 ([6]; read-out: LC50 K/1, second table headed TABLE VIII): 200 nM; CC50 ([7]; 120 h, read-out: LC50 H/1.2, Table VII, concentration giving 50% cell kill, 5 days exposure): 100 nM; CC50 ([7]; read-out: LC50 H/1.2, Table VIII): 100 nM; CC50 ([7]; read-out: LC50 H/1.2, Table XV (Example 51)): 110 nM; CC50 ([7]; read-out: LC50 H/1.2, second table headed TABLE VIII): 100 nM; CC50 [8]: 60 nM; CC50 ([9]; read-out: LC50 3LL, Table XV (Example 51)): 250 nM; CC50 at 5 days [10]: 100 nM; Selectivity: sensitivity of one of the seven non-small cell lung cancer cell lines relative to average sensitivity of the fifty-five cell lines ([19]; at GI50, TGI and/or LC50): ~100 times more sensitive to compound 55 than the
2 | COC(=O)c1nc(-c2ccc3c(n2)C(=O)C(NC(C)=O)=CC3=O)c2[nH]c3ccccc3c2c1C [Compound 1, 7-N-Acetyllavendamycin Methyl Ester] | – | – | – | – | > 33000 nM | < 33000 nM | > 33000 nM | +36.3% | +80.3% | +60.2% | +80.0% | +63.0% | +47.9% | +70.0% | +89.5% | +42.6% | adverse effect of administration as measured by weight loss (in words) [20]: did not. appear to be adversely affected; solubility in vehicle (in words) [21]: poorly soluble; selective toxicity against ras^K oncogene bearing tumor cells as compared to the normal, non-transformed cells ([2]; LC50 NRKE divided by LC50 K/1): 9 fold; CC50 ([2]; rat, 5 days): 100 nM; Number Dead Number Treated ([22]; 10 Mg/Kg/Day IP in three doses per day for 7 days): 0/7; Number Dead Number Treated ([22]; 30 Mg/Kg/Day IP in three doses per day for 7 days): 0/7; Number Dead Number Treated ([22]; 100 Mg/Kg/Day IP in three doses per day for 7 days): 0/7; toxicity in tumor-bearing nude mice (in words) ([22]; mouse, in vivo): little or no toxicity; tumor growth inhibition in vivo (in words) ([22]; summary of Table X): excellent tumor growth inhibition; CC50 ([6]; 120 h, read-out: LC50 K/1): 100 nM; CC50 ([6]; read-out: LC50 K/1): 100 nM; CC50 ([7]; 120 h, read-out: LC50 H/1.2): 700 nM; CC50 ([7]; read-out: LC50 H/1.2): 700 nM; CC50 at 5 days ([10]; rat, LC50 NRKE): 900 nM
3 | COC(=O)c1nc(-c2ccc3c(n2)C(=O)C(N)=C(Cl)C3=O)c2[nH]c3ccccc3c2c1C [Compound 58, 6-Chlorolavendamycin methyl ester] | 1.40 | 1.07 | 1.09 | 0.54 | – | – | – | −14.6% | −86.1% | −52.2% | −84.9% | −73.7% | −58.7% | −39.3% | −63.0% | −69.3% | Total Score [23]: 14
